Reference: ChEMBL document CHEMBL6153109, “Switching Roles─Exploring Concentration-Dependent Agonistic versus Antagonistic Behavior of Integrin Ligands” (J Med Chem, 2025)
Activity calls are given as the source filed them. The rule behind the calls is not given here.

Assays:
M21 [1] = test: Inhibition of cell migration in human M21 cells expressing integrin alphaVbeta3 assessed as delay in wound gap closure at 1 nM measured after 9 to 72 hrs by wound scratch assay; assay type: functional, cell-based; settings: time 9-72 hrs
OV-MZ-6 = test: Inhibition of cell migration in human OV-MZ-6 cells expressing integrin alpha5beta1 assessed as delay in wound gap closure at 1 to 1000 nM measured after 24 to 72 hrs by wound scratch assay relative to control; assay type: functional, cell-based; settings: dose 1-1000 nM, time 24-72 hrs
Integrin alpha-5/beta-1 [2] = target: T1, Integrin alpha-5/beta-1 (Homo sapiens, UniProt P05556+P08648); test: Agonist activity at integrin alpha5beta1 in human OV-MZ-6 cells assessed as fold increase in p-ERK1/2 expression at 1 uM incubated for 24 hrs by Western blot analysis; assay type: cell-based; settings: filed as agonist
Integrin alpha-5/beta-1 [3] = target: T1, Integrin alpha-5/beta-1; test: Agonist activity at integrin alpha5beta1 in human OV-MZ-6 cells assessed as increase in FAK expression at 1 to 1000 nM measured after 5 to 60 mins by Western blot analysis; assay type: cell-based; settings: dose 1-1000 nM, time 5-60 min
Integrin alpha-5/beta-1 [4] = target: T1, Integrin alpha-5/beta-1; test: Agonist activity at integrin alpha5beta1 in human OV-MZ-6 cells assessed as increase in p-FAK expression at 1 nM measured after 30 to 60 mins by Western blot analysis; assay type: cell-based; settings: time 30-60 min
[5] = Inhibition of cell migration in human OV-MZ-6 cells expressing integrin alpha5beta1 assessed as cell coverage at 1 uM measured within 72 hrs by wound scratch assay relative to control; assay type: functional; set-up: scale not given: the % may be the effect or the level left
M21 [6] = test: Inhibition of cell migration in human M21 cells expressing integrin alphaVbeta3 assessed as delay in wound gap closure at 1 uM measured after 72 hrs by wound scratch assay; assay type: functional, cell-based
M21 [7] = test: Inhibition of cell migration in human M21 cells expressing integrin alphaVbeta3 assessed as cell coverage at 1 uM measured within 72 hrs by wound scratch assay (reference value: 95 %); assay type: functional; set-up: scale not given: the % may be the effect or the level left
M21 [8] = test: Inhibition of cell adhesion in human M21 cells expressing integrin alphaVbeta3 at 1 uM measured after 48 hrs by microscopic imaging analysis; assay type: functional, cell-based
M21 [9] = test: Inhibition of cell adhesion in human M21 cells expressing integrin alphaVbeta3 at 1 nM measured after 48 hrs by microscopic imaging analysis; assay type: functional, cell-based

SMILES: CC(C)[C@H]1C(=O)N[C@@H](CCCNC(=N)N)C(=O)NCC(=O)N[C@@H](CC(=O)O)C(=O)N[C@H](Cc2ccccc2)C(=O)N1C [CILENGITIDE]
- inhibition (M21 [1]): inactive
- inhibition (OV-MZ-6): inactive
- fold change (FC) (Integrin alpha-5/beta-1 [2]): 3.1
- Activity (Integrin alpha-5/beta-1 [3]): inactive
- Activity (Integrin alpha-5/beta-1 [4]): inactive
- Activity [5]: 60%
- inhibition (M21 [6]): Active
- Activity (M21 [7]): 40%
- inhibition (M21 [8]): Active
- inhibition (M21 [9]): inactive
